Target: recombinant Human Phosphodiesterase B2 (PDE4B2) (Homo sapiens, UniProt Q07343)
Test: Human Phosphodiesterase B2 Radiometric Assay
Type: biochemical
Conditions: 0.1 μg/mL recombinant PDE4B2; preincubated at 30 C for 30 min; [3H]cyclic AMP 8 nM, stopped after 20 min; yttrium silicate SPA beads; read-out: PDE4B2 pIC50 (converted)
Method in brief: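 Compounds preincubated 30 min at 30 C with 0.1 μg/mL recombinant PDE4B2 in 50 mM HEPES pH 7.5, 8.3 mM MgCl2, 1.7 mM EGTA, 0.01% Brij 35.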

Sequence of recombinant Human Phosphodiesterase B2 (PDE4B2) (Q07343 1-564 isoform Q07343-2): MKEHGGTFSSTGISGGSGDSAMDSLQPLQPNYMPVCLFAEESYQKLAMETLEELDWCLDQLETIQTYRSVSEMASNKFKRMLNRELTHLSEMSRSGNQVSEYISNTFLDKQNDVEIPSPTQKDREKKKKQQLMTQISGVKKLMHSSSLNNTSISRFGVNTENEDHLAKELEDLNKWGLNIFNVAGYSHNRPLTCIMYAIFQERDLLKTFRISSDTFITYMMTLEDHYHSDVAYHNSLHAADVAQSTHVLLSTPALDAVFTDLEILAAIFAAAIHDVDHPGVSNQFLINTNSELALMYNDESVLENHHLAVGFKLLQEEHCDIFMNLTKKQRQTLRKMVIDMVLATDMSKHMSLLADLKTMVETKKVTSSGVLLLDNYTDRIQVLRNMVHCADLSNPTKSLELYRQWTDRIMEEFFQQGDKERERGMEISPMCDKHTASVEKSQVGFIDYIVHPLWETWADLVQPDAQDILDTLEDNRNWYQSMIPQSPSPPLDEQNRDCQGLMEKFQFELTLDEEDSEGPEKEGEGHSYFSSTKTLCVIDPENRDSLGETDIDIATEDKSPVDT

Going from CC(C)c1nc(C(=O)N[C@H]2CC[C@@H](NC(=O)c3cc(F)cnc3Oc3cccc(-c4ccc(O)c(CN5C[C@@H](C)N[C@@H](C)C5)c4)c3)CC2)cs1 [Example 90, N-((1s,4s)-4-(2-(3′-(((3S,5R)-3,5-dimethylpiperazin-1-yl)methyl)-4′-hydroxybiphenyl-3-yloxy)-5-fluoronicotinamido)cyclohexyl)-2-isopropylthiazole-4-carboxamide] to Cc1nc(C(=O)N[C@H]2CC[C@@H](NC(=O)c3cc(F)cnc3Oc3cccc(-c4ccc(CN5C[C@@H](C)N[C@@H](C)C5)c(O)c4)c3)CC2)cs1 [Example 98, N-((1s,4s)-4-(2-(4′-(((3S,5R)-3,5-dimethylpiperazin-1-yl)methyl)-3′-hydroxybiphenyl-3-yloxy)-5-fluoronicotinamido)cyclohexyl)-2-methylthiazole-4-carboxamide], the IC50 falls from 0.2 nM to 0.1 nM (2-fold).

Compared with C[C@@H]1CN(Cc2cc(-c3cccc(Oc4ncc(F)cc4C(=O)N[C@H]4CC[C@@H](NC(=O)c5cn6c(n5)CCCC6)CC4)c3)ccc2O)C[C@H](C)N1 [Example 91, N-((1s,4s)-4-(2-(3′-(((3S,5R)-3,5-dimethylpiperazin-1-yl)methyl)-4′-hydroxybiphenyl-3-yloxy)-5-fluoronicotinamido)cyclohexyl)-5,6,7,8-tetrahydroimidazo[1,2-a]pyridine-2-carboxamide], C[C@@H]1CN(Cc2cc(-c3cccc(Oc4ncc(F)cc4C(=O)N[C@H]4CC[C@@H](NC(=O)c5cc6n(n5)CCCC6)CC4)c3)ccc2O)C[C@H](C)N1 [Example 101, N-((1s,4s)-4-(2-(3′-(((3R,5S)-3,5-dimethylpiperazin-1-yl)methyl)-4′-hydroxybiphenyl-3-yloxy)-5-fluoronicotinamido)cyclohexyl)-4,5,6,7-tetrahydropyrazolo[1,5-a]pyridine-2-carboxamide] is 4-fold lower in IC50: 0.251 nM for the first, 0.0631 nM for the second.

Going from C[C@@H]1CN(Cc2cc(-c3cccc(Oc4ncc(F)cc4C(=O)N[C@H]4CC[C@@H](NC(=O)c5cc(C(F)(F)F)n(C)n5)CC4)c3)ccc2O)C[C@H](C)N1 [Example 92, 2-(3′-(((3S,5R)-3,5-dimethylpiperazin-1-yl)methyl)-4′-hydroxybiphenyl-3-yloxy)-5-fluoro-N-((1s,4s)-4-(1-methyl-5-(trifluoromethyl)-1H-pyrazole-3-carboxamido)cyclohexyl)nicotinamide] to Cc1ccc(O)c(C(=O)N[C@H]2CC[C@@H](NC(=O)c3cc(F)cnc3Oc3cccc(-c4ccc(O)c(CN5C[C@@H](C)N[C@@H](C)C5)c4)c3)CC2)c1 [Example 95, 2-(3′-(((3S,5R)-3,5-dimethylpiperazin-1-yl)methyl)-4′-hydroxybiphenyl-3-yloxy)-5-fluoro-N-((1s,4s)-4-(2-hydroxy-5-methylbenzamido)cyclohexyl)nicotinamide], the IC50 rises from 0.126 nM to 0.2 nM (1.6-fold).

First: Cc1cccc2nc(C(=O)N[C@H]3CC[C@@H](NC(=O)c4cc(F)cnc4Oc4cccc(-c5ccc(CCCN6CCNCC6)cc5)c4)CC3)cn12 [Example 93, N-((1s,4s)-4-(5-fluoro-2-(4′-(3-(piperazin-1-yl)propyl)biphenyl-3-yloxy)nicotinamido)cyclohexyl)-5-methylimidazo[1,2-a]pyridine-2-carboxamide]
Second: Cc1cccc2nc(C(=O)N[C@H]3CC[C@@H](NC(=O)c4cc(F)cnc4Oc4cccc(-c5cccc(CN6CCNCC6)c5)c4)CC3)cn12 [Example 100, N-((1s,4s)-4-(5-fluoro-2-(3′-(piperazin-1-ylmethyl)biphenyl-3-yloxy)nicotinamido)cyclohexyl)-5-methylimidazo[1,2-a]pyridine-2-carboxamide]
The IC50 of the first is 1.6-fold lower: 0.1 nM for the first, 0.158 nM for the second.

Going from C[C@@H]1CN(Cc2cc(-c3cccc(Oc4ncc(F)cc4C(=O)N[C@H]4CC[C@@H](NC(=O)c5cccc6[nH]cnc56)CC4)c3)ccc2O)C[C@H](C)N1 [Example 94, N-((1s,4s)-4-(2-(3′-(((3S,5R)-3,5-dimethylpiperazin-1-yl)methyl)-4′-hydroxybiphenyl-3-yloxy)-5-fluoronicotinamido)cyclohexyl)-1H-benzo[d]imidazole-4-carboxamide] to Cc1cccc2nc(C(=O)N[C@H]3CC[C@@H](NC(=O)c4cc(F)cnc4Oc4cccc(-c5ccc(CN6C[C@@H](C)N[C@@H](C)C6)c(O)c5)c4)CC3)cn12 [Example 96, N-((1s,4s)-4-(2-(4′-(((3S,5R)-3,5-dimethylpiperazin-1-yl)methyl)-3′-hydroxybiphenyl-3-yloxy)-5-fluoronicotinamido)cyclohexyl)-5-methylimidazo[1,2-a]pyridine-2-carboxamide], the IC50 rises from 0.0631 nM to 0.2 nM (3.2-fold).

Going from C[C@@H]1CN(Cc2ccc(-c3cccc(Oc4ncc(F)cc4C(=O)N[C@H]4CC[C@@H](NC(=O)c5cc6ccccn6n5)CC4)c3)cc2O)C[C@H](C)N1 [Example 97, N-((1s,4s)-4-(2-(4′-(((3S,5R)-3,5-dimethylpiperazin-1-yl)methyl)-3′-hydroxybiphenyl-3-yloxy)-5-fluoronicotinamido)cyclohexyl)pyrazolo[1,5-a]pyridine-2-carboxamide] to Cc1cc(C(=O)N[C@H]2CC[C@@H](NC(=O)c3cc(F)cnc3Oc3cccc(-c4cccc(CCN5C[C@@H](C)N[C@@H](C)C5)c4)c3)CC2)nn1C [Example 103, N-((1s,4s)-4-(1,5-dimethyl-1H-pyrazole-3-carboxamido)cyclohexyl)-2-(3′-(2-((3S,5R)-3,5-dimethylpiperazin-1-yl)ethyl)biphenyl-3-yloxy)-5-fluoronicotinamide], the IC50 falls from 0.126 nM to 0.0316 nM (4-fold).

First: C[C@@H]1CN(CCc2ccc(-c3cccc(Oc4ncc(F)cc4C(=O)N[C@H]4CC[C@@H](NC(=O)c5cnc6ccccc6n5)CC4)c3)cc2)C[C@H](C)N1 [Example 99, N-((1s,4s)-4-(2-(4′-(2-((3S,5R)-3,5-dimethylpiperazin-1-yl)ethyl)biphenyl-3-yloxy)-5-fluoronicotinamido)cyclohexyl)quinoxaline-2-carboxamide]
Second: C[C@@H]1CN(CCCc2ccc(-c3cccc(Oc4ncc(F)cc4C(=O)N[C@H]4CC[C@@H](NC(=O)c5cn6c(n5)CCCC6)CC4)c3)cc2)C[C@H](C)N1 [Example 104, N-((1s,4s)-4-(2-(4′-(3-((3S,5R)-3,5-dimethylpiperazin-1-yl)propyl)biphenyl-3-yloxy)-5-fluoronicotinamido)cyclohexyl)-5,6,7,8-tetrahydroimidazo[1,2-a]pyridine-2-carboxamide]
The IC50 of the first is 2.5-fold higher: 0.0794 nM for the first, 0.0316 nM for the second.

First: Cc1cc(C(=O)N[C@H]2CC[C@@H](NC(=O)c3cc(F)cnc3Oc3cccc(-c4cccc(CCN5CCNCC5)c4)c3)CC2)nn1C [Example 102, N-((1s,4s)-4-(1,5-dimethyl-1H-pyrazole-3-carboxamido)cyclohexyl)-5-fluoro-2-(3′-(2-(piperazin-1-yl)ethyl)biphenyl-3-yloxy)nicotinamide]
Second: CN(C)CCN(C)Cc1ccc(-c2cccc(Oc3ncc(F)cc3C(=O)N[C@H]3CC[C@@H](NC(=O)c4cn5c(n4)CCCC5)CC3)c2)cc1 [Example 105, N-((1s,4s)-4-(2-(4′-(((2-(dimethylamino)ethyl)(methyl)amino)methyl)biphenyl-3-yloxy) 5-fluoronicotinamido)cyclohexyl)-5,6,7,8-tetrahydroimidazo[1,2-a]pyridine-2-carboxamide]
The IC50 of the first is 16-fold lower: 0.0398 nM for the first, 0.631 nM for the second.

— patent publication US8273774B2, “Phenoxypyridinylamide compounds” (AstraZeneca AB, priority 2008, dated 2012)
